From US9321764B2, “Dihydro-pyrrolopyridinone inhibitors” (AbbVie Inc., priority 2013, dated 2016) come the findings set out here.

In one assay the target is T1, BRD4 (BDII_E352-M457) (Homo sapiens, UniProt O60885).
T1 construct: proliferation; Protocol; made in house
In words: TR-FRET bromodomain binding assay, second bromodomain of BRD4. The note with it: His-tagged BD2, 30 nM Alexa647 probe; TR-FRET protocol A-E given per row. Summed up:
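His-tagged BRD4 BD2 ([…]) competed against an Alexa647-labelled BET-inhibitor probe in TR-FRET. Buffer was 20 mM sodium phosphate pH 6.0, 50 mM NaCl, 1 mM EDTA, 0.01% Triton X-100, 1 mM DTT, with method D DMSO series of 2.5 mM–800 nM (stock range). IC50 from 4-parameter fit, Ki from probe Kd and concentration.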

For the next assay, the target named is T2, BRD4 (BDI_K57-E168) (Homo sapiens, UniProt O60885).
T2 construct: BD1: amino acids K57-E168; made in house
The assay can be described thus: TR-FRET bromodomain binding assay, first bromodomain of BRD4. The note with it: His-tagged BD1, 100 nM Alexa647 probe; TR-FRET protocol A-E given per row. In a few lines:
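His-tagged BRD4 BD1 (K57-E168), 8 nM, with 1 nM Eu-anti-His antibody and 100 nM Alexa647-labelled BET-inhibitor probe in pH 6.0 phosphate buffer, 2% DMSO. TR-FRET read after 1 h at room temperature. IC50 from 4-parameter fit, converted to Ki using probe Kd and concentration.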

In assay [1] the test system is breast cancer cell line MX-1. The assay can be described thus: MX-1 cell line proliferation assay. The class given is cell-based. The note with it: Homo sapiens, MX1, 72 h, MX-1 cells, 3-day proliferation assay, Cell Titer Glo; read-out: Cellular proliferation EC50. As for the experimental part:
The impact of compounds of the Examples on cancer cell proliferation was determined using the breast cancer cell line MX-1 (ATCC) in a 3-day proliferation assay and the data are reported in Table 1. MX-1 cells were maintained in RPMI 1640 medium (Sigma) supplemented with 10% FBS at 37° C. and an atmosphere of 5% CO2. For compound testing, MX-1 cells were plated in 96-well black bottom plates at a density of 5000 cells/well in 90 μL of culture media and incubated at 37° overnight to allow cell adhesion and spreading. Compound dilution series were prepared in DMSO via a 3-fold serial dilution from 3 mM to 0.1 μM. The DMSO dilution series were then diluted 1:100 in phosphate buffered saline, and 10 μL of the resulted solution were added to the appropriate wells of the MX-1 cell plate. The final compound concentrations in the wells were 3, 1, 0.3, 0.1, 0.03, 0.01, 0.003, 0.001, 0.0003 and 0.0001 μM.
Luminescence readings from the Cell Titer Glo assay were normalized to the DMSO treated cells and analyzed using the GraphPad Prism software with sigmoidal curve fitting to obtain EC50s. The minimum significant ratio (MSR) was determined to evaluate assay reproducibility (Eastwood et al., (2006) J Biomol Screen, 11: 253-261).
(In general: In ATP-based viability assays light output follows the ATP content of the culture.)

Structures are written as SMILES.

For `Cn1cc(-c2cc(S(C)(=O)=O)ccc2O[C@H]2CC[C@H](O)CC2)c2cc[nH]c(=O)c21` [Example 34, 3-{2-[(trans-4-hydroxycyclohexyl)oxy]-5-(methylsulfonyl)phenyl}-1-methyl-1,6-dihydro-7H-pyrrolo[2,3-c]pyridin-7-one], the Ki amounted to 29 nM at BRD4 (BDII_E352-M457) and 1.6 nM on BRD4 (BDI_K57-E168). Moreover, the EC50 in assay [1] was 95 nM.

As to `Cn1cc(-c2cc(S(C)(=O)=O)ccc2OCCC(C)(C)C)c2cc[nH]c(=O)c21` [Example 40, 3-[2-(3,3-dimethylbutoxy)-5-(methylsulfonyl)phenyl]-1-methyl-1,6-dihydro-7H-pyrrolo[2,3-c]pyridin-7-one], the inhibitory constant (Ki) on BRD4 (BDII_E352-M457) amounted to 64 nM; at BRD4 (BDI_K57-E168) it was 23 nM. For the same compound, in assay [1], the EC50 turned out to be 87 nM.

With `Cn1cc(-c2cc(S(C)(=O)=O)ccc2OCC2CCC(F)(F)CC2)c2cc[nH]c(=O)c21` [Example 41, 3-{2-[(4,4-difluorocyclohexyl)methoxy]-5-(methylsulfonyl)phenyl}-1-methyl-1,6-dihydro-7H-pyrrolo[2,3-c]pyridin-7-one], the Ki at BRD4 (BDII_E352-M457) amounted to 406 nM; at BRD4 (BDI_K57-E168), 63 nM. The EC50 in assay [1] was 403 nM.

`Cn1cc(-c2cc(S(C)(=O)=O)ccc2OCC2CC2(F)F)c2cc[nH]c(=O)c21` (stereo not drawn) [Example 42, 3-{2-[(2,2-difluorocyclopropyl)methoxy]-5-(methylsulfonyl)phenyl}-1-methyl-1,6-dihydro-7H-pyrrolo[2,3-c]pyridin-7-one]: the values for the Ki at BRD4 (BDII_E352-M457) and on BRD4 (BDI_K57-E168) were 79 nM and 13 nM, respectively. Further, the EC50 in assay [1] is 221 nM.

For `Cn1cc(-c2cc(S(C)(=O)=O)ccc2NCC2CC2)c2cc[nH]c(=O)c21` [Example 44, 3-{2-[(cyclopropylmethyl)amino]-5-(methylsulfonyl)phenyl}-1-methyl-1,6-dihydro-7H-pyrrolo[2,3-c]pyridin-7-one], the Ki at BRD4 (BDII_E352-M457) amounted to 89 nM; on BRD4 (BDI_K57-E168), 14 nM. The EC50 in assay [1] amounted to 136 nM.

Consider `CN(CC1CC1)c1ccc(S(C)(=O)=O)cc1-c1cn(C)c2c(=O)[nH]ccc12` [Example 45, 3-{2-[(cyclopropylmethyl)(methyl)amino]-5-(methylsulfonyl)phenyl}-1-methyl-1,6-dihydro-7H-pyrrolo[2,3-c]pyridin-7-one], for which the inhibition constant Ki was 70 nM on BRD4 (BDII_E352-M457) and 37 nM on BRD4 (BDI_K57-E168). The EC50 in assay [1] is 279 nM.

For `Cn1cc(-c2cc(S(C)(=O)=O)ccc2NCc2ccc(C#N)cc2)c2cc[nH]c(=O)c21` [Example 46, 4-({[2-(1-methyl-7-oxo-6,7-dihydro-1H-pyrrolo[2,3-c]pyridin-3-yl)-4-(methylsulfonyl)phenyl]amino}methyl)benzonitrile], the Ki on BRD4 (BDII_E352-M457) was 1090 nM; on BRD4 (BDI_K57-E168), 205 nM. Also, the EC50 in assay [1] was found to be 479 nM.

With `CCS(=O)(=O)c1ccc(Oc2ccc(Cl)cc2)c(-c2cn(C)c3c(=O)[nH]ccc23)c1` [Example 48, 3-[2-(4-chlorophenoxy)-5-(ethylsulfonyl)phenyl]-1-methyl-1,6-dihydro-7H-pyrrolo[2,3-c]pyridin-7-one], the inhibition constant (Ki) was 40 nM at BRD4 (BDII_E352-M457) and 14 nM at BRD4 (BDI_K57-E168). Moreover, the EC50 in assay [1] is 114 nM.

Take `CCS(=O)(=O)c1ccc(Oc2ccc(F)cc2F)c(-c2cn(C)c3c(=O)[nH]ccc23)c1` [Example 49, 3-[2-(2,4-difluorophenoxy)-5-(ethylsulfonyl)phenyl]-1-methyl-1,6-dihydro-7H-pyrrolo[2,3-c]pyridin-7-one]: the Ki at BRD4 (BDII_E352-M457) amounted to 24 nM; at BRD4 (BDI_K57-E168), 13 nM. The EC50 in assay [1] amounted to 52 nM.

As for `Cn1cc(-c2cc(S(N)(=O)=O)ccc2Oc2ccc(F)cc2F)c2cc[nH]c(=O)c21` [Example 51, 4-(2,4-difluorophenoxy)-3-(1-methyl-7-oxo-6,7-dihydro-1H-pyrrolo[2,3-c]pyridin-3-yl)benzenesulfonamide], the Ki on BRD4 (BDII_E352-M457) is 62 nM; on BRD4 (BDI_K57-E168) it was 47 nM. Further, in assay [1], the EC50 was 201 nM.

Broadly, the Ki is a measure of affinity in units of concentration, obtained from inhibition or displacement.
